Test system: mTOR-dependent TOP-translation
Experiment: Luciferase reporter assay with non-typical TOP sequence in COS-7 cells co-transfected with Q23 or Q74
Format: cell-based, African green monkey
Protocol: PC12 cells stably expressing Q23 or Q74 were transfected with a luciferase construct having a 5′ untranslated region from the eEF2 gene containing a terminal oligopyrimidine tract (TOP-luciferase) or without the TOP sequence (Control-luciferase) along with β-galactosidase (to control transfection efficiency). Transfected cells were maintained in serum free medium with doxycycline for 36 hours following which the cells were stimulated with 15% serum with or without rapamycin for 3 h. Cells were then lysed and luciferase assays were performed according to standard protocol. COS-7 cells were co-transfected with Q23 or Q74 with control- or TOP-luciferase along with β-gal and experiments were performed as above. […] Experiments were performed in sextuplicate and repeated several times.
The data in FIG. 11C is represented as explained above for FIG. 10C.

rapamycin
rapamycin-dependent reduction in luciferase activity (non-typical TOP sequence) (COS-7 cells transfected with Q23): 23%
rapamycin-dependent reduction in luciferase activity (non-typical TOP sequence) (COS-7 cells transfected with Q74): no such effect
